Experimental data as given in US4334067A, “Flavan compounds and acid addition salts thereof” (Maruko Seiyaku Co., Ltd., priority 1979, dated 1982).
Counter-ions that a name gives are not always drawn.

What was measured:
ddY male mice = assay: Anti-convulsive activity (pulse from corneal electrode); assay type: in vivo; settings: 60 mg/kg intraperitoneally, 15 minutes before pulse; compared with Phenytoin 40 mg/kg
Method: The test compound was administered intraperitoneally to ddY male mice (weighing 20 to 25 g, 7 mice per group), and, 15 minutes thereafter, pulse (A.C. 100 V, 200 msec.) was applied to the mice from a corneal electrode, and the duration time of tonic flexor, tonic extensor and clonic convulsion were determined.

Acute toxicity = settings: mouse, in vivo, 7 days observation
Method: […] After observing general conditions of mice for 7 days after administration, 50% lethal dose [LD50 (mg/kg)] was determined.

Wistar male rats [1] = assay: Anti-arrhythmic activity (aconitine-induced arrhythmia); assay type: in vivo; settings: 10 mg/kg, 10 minutes before aconitine; compared with Ajmaline 5 mg/kg
Method: An aqueous solution of aconitine was injected continuously at a rate of 3 μg/kg/minute to Wistar male rats (weighing 220 to 270 g, five rats per group) through a polyethylene cannula inserted into the femoral vein. The test compounds were administered 10 minutes before the administration of aconitine.
The cardiac arrhythmia was determined by electrocardiographic recording of II lead on the limbs and the generation of descending large QRS complex was taken as the ventricular extrasystole and the observation was conducted until ventricular fibrillation was produced.

Wistar male rats [2] = assay: Diuretic activity; assay type: in vivo; settings: oral, urine collected 5 hours, control = 1.0
Method: Wistar male rats (weighing 200 to 250 g, 9 rats per group) fasted 18 hours before the test but freely received drinking water were used. A 0.9% (by weight) physiological saline solution containing the test compound was orally charged through a stomach tube in an amount of 3 ml/100 g of body weight. Immediately thereafter, the rats were placed in a stainless steel cage and the urine was collected during a period of 5 hours after the administration and the urine volume was measured.

BALB/C type male mice = assay: Anti-ulcerous activity (restraint water-immersion stress ulcer); assay type: in vivo; settings: for Ulcerous Index: control 54.4 mm; for % Inhibition: inhibition of stress ulcer versus control
Method: BALB/C type male mice weighing about 20 g which fasted for 17 hours before the test were placed in a poly(vinyl chloride) cyclindrical restraint cage having an inside diameter of 35 mm and the mice were immersed in water at 15° C. to the level of xiphisternum of mice for a period of 5 hours. Immediately thereafter, stomach was extracted and 1 ml of 0.5% (by weight) formalin solution was injected into the stomach. After fixing for about 10 minutes, the stomach was incised along the greater curvature thereof and the ulcer generated was obserbed by a stereoscopic microcope.

SMILES	anti-convulsive activity (ddY male mice)	LD50 at 168 h (Acute toxicity; iv)	LD50 at 168 h (Acute toxicity; po)	activity for prolonging the time required for producing the cardiac arrhythmia (Wistar male rats [1])	Volume Ratio of Urine (Wistar male rats [2]; 100 mg/kg)	Volume Ratio of Urine (Wistar male rats [2]; 50 mg/kg)	Ulcerous Index (BALB/C type male mice; 10 mg/kg)	% Inhibition (BALB/C type male mice; 10 mg/kg)	Ulcerous Index (BALB/C type male mice; 50 mg/kg)	% Inhibition (BALB/C type male mice; 50 mg/kg)
CCN(CC)CCN[C@H]1c2ccccc2O[C@H](c2ccc(OC)cc2)[C@@H]1O (relative stereo) [Compound A, 2,3-cis-3,4-trans-4-(2-diethylaminoethylamino)-4'-methoxyflavan-3-ol dimaleate]	comparable to that of Phenytoin	1000 mg/kg	2000 mg/kg	–	–	–	–	–	–	–
COc1ccc([C@H]2Oc3ccccc3[C@H](N3CCN(C)CC3)[C@H]2O)cc1 (relative stereo) [Compound B, 2,3-cis-3,4-trans-4'-methoxy-4-(4-methylpiperazin-1-yl)flavan-3-ol dimaleate]	comparable to that of Phenytoin	1000 mg/kg	2000 mg/kg	superior to Ajmaline	–	–	–	–	–	–
COc1ccc([C@H]2Oc3ccccc3[C@H](NCCCN3CCOCC3)[C@H]2O)cc1 (relative stereo) [Compound C, 2,3-cis-3,4-trans-4'-methoxy-4-(3-morpholinopropylamino)flavan-3-ol dimaleate]	comparable to that of Phenytoin	500 mg/kg	1500 mg/kg	–	2.1	–	–	–	–	–
COc1ccc([C@H]2Oc3ccccc3[C@H](NCCCN(C)C)[C@H]2O)cc1 (relative stereo) [Compound D, 2,3-cis-3,4-trans-4-(3-dimethylaminopropylamino)-4'-methoxyflavan-3-ol]	–	1000 mg/kg	1500 mg/kg	–	–	–	–	–	–	–
O[C@H]1[C@H](c2ccccc2)Oc2ccccc2[C@@H]1N1CCCCC1 (relative stereo) [Compound E, 2,3-trans-3,4-trans-4-piperidinoflavan-3-ol maleate]	comparable to that of Phenytoin	1000 mg/kg	1500 mg/kg	–	2.8	–	–	–	–	–
CN1CCN([C@H]2c3ccccc3O[C@@H](c3ccccc3)[C@@H]2O)CC1 (relative stereo) [Compound F, 2,3-trans-3,4-trans-4-(4-methylpiperazin-1-yl)flavan-3-ol dimaleate]	–	300 mg/kg	300 mg/kg	–	2.2	–	–	–	–	–
CC(=O)O[C@H]1[C@H](c2ccccc2)Oc2ccccc2[C@@H]1N1CCN(C)CC1 (relative stereo) [Compound G, 2,3-trans-3,4-trans-3-acetoxy-4-(4-methylpiperazin-1-yl)flavan dimaleate]	–	300 mg/kg	1000 mg/kg	–	–	3.0	37.6 mm	30.8%	14.3 mm	73.7%
CN(C)CCN[C@H]1c2ccccc2O[C@@H](c2ccccc2)[C@@H]1O (relative stereo) [Compound H, 2,3-trans-3,4-trans-4-(2-dimethylaminoethylamino)-flavan-3-ol dimaleate]	–	300 mg/kg	300 mg/kg	superior to Ajmaline	–	–	–	–	–	–
CN1[C@@H]2CC[C@H]1C[C@@H](OC(=O)C(CO)c1ccccc1)C2 (some centres unmarked) [Atropine Sulfate, reference compound]	–	–	–	–	–	–	30.7 mm	43.8%	–	–
